Measurements as given in PMC4433804 (Nature chemical biology, 2015).

Target: RPE65 (bovine RPE microsomes as the enzyme source) (Bos taurus, UniProt Q28175)
Test: in vitro retinoid isomerase activity assay
Format: biochemical

Sequence of UniProt Q28175 (Q28175 whole entry): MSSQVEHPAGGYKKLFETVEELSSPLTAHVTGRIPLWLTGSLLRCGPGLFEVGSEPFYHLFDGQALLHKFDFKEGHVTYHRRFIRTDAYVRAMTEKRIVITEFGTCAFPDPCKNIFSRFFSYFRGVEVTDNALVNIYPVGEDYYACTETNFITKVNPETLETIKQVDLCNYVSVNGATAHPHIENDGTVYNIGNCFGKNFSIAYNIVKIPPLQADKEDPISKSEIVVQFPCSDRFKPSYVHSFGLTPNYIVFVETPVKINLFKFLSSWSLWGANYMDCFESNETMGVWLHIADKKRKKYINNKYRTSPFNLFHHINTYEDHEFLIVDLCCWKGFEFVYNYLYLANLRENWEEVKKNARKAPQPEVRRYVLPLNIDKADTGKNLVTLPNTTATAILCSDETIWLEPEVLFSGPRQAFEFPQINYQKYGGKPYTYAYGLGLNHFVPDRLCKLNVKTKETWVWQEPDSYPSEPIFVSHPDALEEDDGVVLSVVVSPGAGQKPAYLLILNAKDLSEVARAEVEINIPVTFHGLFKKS

**Q.** Which IC50 does the source give for CC1=C(COc2cccc([C@H](O)CCN)c2)C(C)(C)CCC1 [MB-001, (R)-3-amino-1-(3-((2,6,6-trimethylcyclohex-1-en-1-yl)methoxy)phenyl)propan-1-ol] here?
**A.** The IC50 was 396 ± 58 nM.
